Measurements as given in publication PMC8069214, “Synthesis, Biological Evaluation, and Molecular Modeling of Aza-Crown Ethers” (Molecules, 2021).
Where a name gives a salt, the structure may show the parent alone. Read-outs that look alike come from different tables or passages of the source.

Assays:
FPR2 = target: T1, FPR2 (Homo sapiens, UniProt P25090); test: Inhibition of WKYMVM-induced [Ca2+]i flux in FPR2-HL60 cells; type: cell-based; conditions: 10 min preincubation, 5 nM WKYMVM; N.A. = no activity at < 50 µM; read-out: FPR1/FPR2 Agonist-Induced Δ[Ca^2+]i FPR2-HL60 IC50
T1 construct: expressed in transfected cells
T1 sequence (P25090 1-351): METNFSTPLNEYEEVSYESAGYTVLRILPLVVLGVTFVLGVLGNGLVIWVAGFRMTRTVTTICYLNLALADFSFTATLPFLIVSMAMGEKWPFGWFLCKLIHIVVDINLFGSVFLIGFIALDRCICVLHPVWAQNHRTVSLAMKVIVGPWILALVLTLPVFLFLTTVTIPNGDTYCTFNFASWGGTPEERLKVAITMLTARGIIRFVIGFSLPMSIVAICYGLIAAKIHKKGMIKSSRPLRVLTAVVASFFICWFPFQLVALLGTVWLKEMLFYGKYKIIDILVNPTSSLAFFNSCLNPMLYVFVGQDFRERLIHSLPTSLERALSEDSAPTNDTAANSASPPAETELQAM
Procedure: (§1) Since these compounds elevated neutrophil [Ca^2+]i, and cytosolic Ca^2+ flux is a key component of neutrophil activation, we evaluated if they could alter neutrophil activation by FPR1 or FPR2 agonists. Neutrophils and FPR-transfected HL60 cells were preincubated for 10 min with crown ether compounds, and [Ca^2+]i flux was stimulated with either an FPR1 agonist (fMLF for human neutrophils and FPR1-HL60 cells) or an FPR2 agonist (WKYMVM for FPR2-HL60 cells).
(§2) Human promyelocytic leukemia HL60 cells stably transfected with FPR1 (FPR1-HL60 cells) or FPR2 (FPR2-HL60 cells) (kind gifts from Dr. Marie-Josephe Rabiet, INSERM, Grenoble, France) were cultured in RPMI 1640 medium supplemented with 10% heat-inactivated fetal calf serum, 10 mM HEPES, 100 μg/mL streptomycin, 100 U/mL penicillin, and G418 (1 mg/mL). Although stable cell lines are cultured under G418 selection pressure, G418 may affect some assays, so it was removed in the last round of culture before assays were performed.
(§3) Changes in neutrophil intracellular Ca^2+ concentrations ([Ca^2+]i) were measured with a FlexStation 3 scanning fluorometer (Molecular Devices, Sunnyvale, CA, USA). Briefly, human neutrophils were suspended in HBSS^−, loaded with Fluo-4AM at a final concentration of 1.25 μg/mL, and incubated for 30 min in the dark at 37 °C. After dye loading, the cells were washed with HBSS^−, resuspended in HBSS^+, separated into aliquots, and loaded into the wells of flat-bottom, half-area well black microtiter plates (2 × 10^5 cells/well). To assess the direct effects of test compounds on Ca^2+ flux, the compounds were added to the wells (final concentration of DMSO was 1%), and changes in fluorescence were monitored (λex = 485 nm, λem = 538 nm) every 5 s for 240 s at room temperature after addition of the test compound. To evaluate inhibitory effects of the compounds on FPR1/FPR2-dependent Ca^2+ flux, the compounds were added to the wells (final concentration of DMSO was 1%) with cells (human neutrophils or FPR1/FPR2 HL60 cells). The samples were preincubated for 10 min, followed by addition of 5 nM fMLF (for human neutrophils or FPR1-HL60 cells) or 5 nM WKYMVM (for FPR2-HL60 cells). The maximum change in fluorescence, expressed in arbitrary units over baseline, was used to determine the agonist response. Responses were normalized to the response induced by 5 nM fMLF or 5 nM WKYMVM, which were assigned as 100%. Curve fitting (at least five or six points) and calculation of median effective concentration values (EC50 or IC50) were performed by nonlinear regression analysis of the dose–response curves generated using Prism 7 (GraphPad Software, Inc., San Diego, CA, USA). Efficacy was determined by comparing individual responses activated by the test compounds to that induced by a positive control (5 nM fMLF), which was assigned a value of 100%.

human neutrophils [1] = test: Ca2+ mobilization assay, direct effect of compounds on [Ca2+]i; type: cell-based; conditions: Neutrophil; for Emax: % of the response induced by 5 nM fMLF, read-out: Efficacy (converted)
Description: We screened 24 aza- and diaza-crown ethers with adamantyl, adamantylalkyl, aminomethylbenzoyl, and ε-aminocaproyl substituents for their Ca^2+ ionophore effects in human neutrophils. To monitor cytoplasmic Ca^2+ levels, we used the fluorescent Ca^2+ indicator Fluo-4, which is a dynamic single-wavelength fluorescent Ca^2+ indicator. Increases in fluorescence intensity (λex = 485 nm, λem = 538 nm) reflect the rise in cytoplasmic Ca^2+ concentrations ([Ca^2+]i; see Materials and Methods).
as §3

FPR1 = target: T2, FPR1 (Homo sapiens, UniProt P21462); test: Inhibition of fMLF-induced [Ca2+]i flux in FPR1-HL60 cells; type: cell-based; conditions: 10 min preincubation, 5 nM fMLF; N.A. = no activity at < 50 µM; read-out: FPR1/FPR2 Agonist-Induced Δ[Ca^2+]i FPR1-HL60 IC50
T2 construct: expressed in transfected cells
T2 sequence (P21462 1-350): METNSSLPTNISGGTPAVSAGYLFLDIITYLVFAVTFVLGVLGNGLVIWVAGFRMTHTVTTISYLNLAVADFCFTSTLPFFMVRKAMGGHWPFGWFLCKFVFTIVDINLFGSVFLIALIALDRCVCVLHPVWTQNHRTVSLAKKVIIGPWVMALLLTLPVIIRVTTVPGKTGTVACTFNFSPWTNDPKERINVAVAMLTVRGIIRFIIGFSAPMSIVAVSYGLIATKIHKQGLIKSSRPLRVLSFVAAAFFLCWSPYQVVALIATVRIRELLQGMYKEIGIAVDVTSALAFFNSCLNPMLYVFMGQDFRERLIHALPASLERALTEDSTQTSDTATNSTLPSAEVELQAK
Procedure: as §1, §2, §3

human neutrophils [2] = test: Inhibition of fMLF-induced [Ca2+]i flux in human neutrophils; type: cell-based; conditions: Neutrophil, 10 min preincubation, 5 nM fMLF, N.A. = no activity at < 50 µM, read-out: FPR1/FPR2 Agonist-Induced Δ[Ca^2+]i Neutrophils IC50
Procedure: as §1, §3

human neutrophils [3] = test: PMA-induced ROS production (L-012 chemiluminescence); type: cell-based; conditions: Neutrophil, 200 nM PMA, N.A. = no activity at < 50 µM
Description: To evaluate if the crown ethers could also disrupt GPCR-independent functional activity, we evaluated the effects of these compounds on phorbol 12-myristate 13-acetate (PMA)-stimulated reactive oxygen species (ROS) production. […] A representative concentration-dependent response for the inhibition of PMA-stimulated neutrophil ROS production by compound 15 is shown in Figure 2B. Since ROS production in neutrophils also requires increased [Ca^2+]i, the results again confirm that the impact of these compounds on Ca^2+ flux kinetics can alter neutrophil function.
ROS production was determined by monitoring L-012-enhanced chemiluminescence, which represents a sensitive and reliable method for detecting superoxide anion (O2^−.) production. Human neutrophils were resuspended at 2 × 10^5 cells/mL in HBSS^+ supplemented with 40 µM L-012. Cells (100 µL) were aliquoted into wells of 96-well flat-bottomed microtiter plates containing test compounds at different concentrations (final DMSO concentration of 1%). Cells were preincubated for 10 min, and 200 nM PMA was added to each well to stimulate ROS production. Luminescence was monitored for 120 min (2-min intervals) at 37 °C using a Fluroscan Ascent FL microtiter plate reader (Thermo Electron, Waltham, MA, USA). The curve of light intensity (in relative luminescence units) was plotted against time, and the area under the curve was calculated as total luminescence. The compound concentration that inhibited ROS production by 50% of the PMA-induced response (positive control) was determined by graphing the percentage inhibition of ROS production versus the logarithm of concentration of test sample (IC50). Each curve was determined using five to seven concentrations.

human neutrophils [4] = test: fMLF-induced neutrophil chemotaxis (ChemoTx chambers); type: cell-based; conditions: 1 h, 1 nM fMLF, 60 min migration
Procedure: Human neutrophils were suspended in HBSS^+ containing 2% (v/v) heat-inactivated fetal bovine serum (2 × 10^6 cells/mL), and effects of the compounds on fMLF-induced chemotaxis was analyzed in 96-well ChemoTx chemotaxis chambers (Neuroprobe, Gaithersburg, MD, USA). In brief, neutrophils were preincubated with the indicated concentrations of the test compounds or DMSO for 20 min at room temperature and added to the upper wells of the ChemoTx chemotaxis chambers. The lower wells were loaded with 30 µL of HBSS^+ containing 2% (v/v) fetal bovine serum and the indicated concentrations of test sample plus 1 nM fMLF, DMSO (negative control), or 1 nM fMLF as a positive control. Neutrophils were added to the upper wells and allowed to migrate through the 5.0-µm pore polycarbonate membrane filter for 60 min at 37 °C and 5% CO2. The number of migrated cells was determined by measuring ATP in lysates of transmigrated cells using a luminescence-based assay (CellTiter-Glo; Promega, Madison, WI, USA), and luminescence measurements were converted to absolute cell numbers by comparison of the values with standard curves obtained with known numbers of neutrophils. Curve fitting (at least eight to nine points) and calculation of median effective concentration values (IC50) were performed by nonlinear regression analysis of the dose-response curves generated using Prism 5.

[5] = Homo sapiens, elevation of [Ca2+]i, Fluo-4, N.A. = no activity was found at concentration < 50 µM, read-out: EC50, effect on [Ca^2+]i flux in human neutrophils
[6] = reciprocal of EC50 in human neutrophils, inactive compounds assigned zero, read-out: 1/[EC50] (converted)

Row | Compound | IC50 (FPR2) [µM] | Emax (human neutrophils [1]; Homo sapiens) [%] | EC50 (human neutrophils [1]; [5]) [µM] | EC50 (human neutrophils [1]; [6]) [µM] | melting point [°C] | IC50 (FPR1) [µM] | IC50 (human neutrophils [2]) [µM] | IC50 (human neutrophils [3]) [µM] | IC50 (human neutrophils [4]) [µM]
1 | O=C(N1CCOCCOc2ccccc2OCCOCC1)C12CC3CC(CC(C3)C1)C2 [Compound 10, N-[1-Oxo-1-(1-adamantyl)methyl]benzoaza-15-crown-5] | 36.4 ± 5.6 | 25 to 50 | 9.7 ± 2.6 | 9.7 | 111 to 113 | 12.2 ± 1.9 | 11.2 ± 2.7 |  | 
2 | C1COCCN(CCC23CC4CC(CC(C4)C2)C3)CCOCCOCCN(CCC23CC4CC(CC(C4)C2)C3)CCO1 [Compound 21, N,N’-bis[2-(1-adamantyl)ethyl]-4,13-diaza-18-crown-6] | 28.2 ± 2.6 | 25 to 50 | 11.3 ± 3.1 | 11.3 |  | 9.6 ± 2.1 | 10.2 ± 2.6 | 15.3 ± 1.8 | 
3 | NCCCCCC(=O)N1CCOCCOCCN(C(=O)CCCCCN)CCOCC1 (as salt: hydrochloride) [Compound 22, N,N’-bis(6-aminohexanoyl)-4,10-diaza-15-crown-5 dihydrochloride] |  |  |  |  | 114 to 118 |  |  |  | 
4 | O=C(CC12CC3CC(CC(C3)C1)C2)N1CCOCCOc2ccccc2OCCOCC1 [Compound 11, N-[2-(1-adamantyl)acetyl]benzoaza-15-crown-5] | 29.1 ± 3.2 | 25 to 50 | 15.6 ± 4.4 | 15.6 | 141 to 142 |  | 9.4 ± 0.6 |  | 12.8 ± 5.3
5 | O=C(N1CCOCCOCCN(C(=O)C23CC4CC(CC(C4)C2)C3)CCOCCOCC1)C12CC3CC(CC(C3)C1)C2 [Compound 16, N,N’-bis[1-oxo-1-(1-adamantyl)methyl]-4,13-diaza-18-crown-6] | 30.7 ± 6.4 | 25 to 50 | 15.7 ± 3.8 | 15.7 |  | 7.3 ± 2.6 | 3.4 ± 0.8 |  | 5.3 ± 0.4
6 | O=C(CC12CC3CC(CC(C3)C1)C2)N1CCOCCOCCOCCOCC1 [Compound 8, N-[2-(1-adamantyl)acetyl]aza-15-crown-5] |  |  | 22.4 ± 4.3 | 22.4 |  | 37.1 ± 4.8 | 2.6 ± 0.4 |  | 13.2 ± 3.8
7 | O=C(CC12CC3CC(CC(C3)C1)C2)NC12CC3CC(CC(C3)C1)C2 [Compound 3, N,2-di(1-adamantyl)acetamide] |  |  |  |  | 242 to 244 |  |  |  | 
8 | O=C(NC1CCCCC1)C12CC3CC(CC(C3)C1)C2 [Compound 4, N-cyclohexyladamantane-1-carboxamide] |  |  |  |  | 174 to 176 |  |  |  | 
9 | O=C(NC12CC3CC(CC(C3)C1)C2)C12CC3CC(CC(C3)C1)C2 [Compound 2, N-(1-adamantyl)adamantane-1-carboxamide] |  |  |  |  | 255 to 257 |  |  |  | 
10 | O=C(N1CCOCCN(C(=O)C23CC4CC(CC(C4)C2)C3)CCOCC1)C12CC3CC(CC(C3)C1)C2 [Compound 12, N,N’-bis[1-oxo-1-(1-adamantyl)methyl]-4,10-diaza-12-crown-4] |  | 25 to 50 | 23.8 ± 7.6 | 23.8 |  |  | 4 ± 1.4 |  | 15.7 ± 4.2
11 | C1COCCN(CC23CC4CC(CC(C4)C2)C3)CCOCCN(CC23CC4CC(CC(C4)C2)C3)CCO1 [Compound 19, N,N’-bis[(1-adamantyl)methyl]-4,10-diaza-15-crown-5] |  |  |  |  | 74 to 78 |  |  |  | 
